The target in the experiment is T1, human estrogen receptor-alpha (Homo sapiens, UniProt P03372).
T1 construct: made in house; host or cells: yeast strain BJ2168, copper-induced
T1 sequence (P03372 1-595): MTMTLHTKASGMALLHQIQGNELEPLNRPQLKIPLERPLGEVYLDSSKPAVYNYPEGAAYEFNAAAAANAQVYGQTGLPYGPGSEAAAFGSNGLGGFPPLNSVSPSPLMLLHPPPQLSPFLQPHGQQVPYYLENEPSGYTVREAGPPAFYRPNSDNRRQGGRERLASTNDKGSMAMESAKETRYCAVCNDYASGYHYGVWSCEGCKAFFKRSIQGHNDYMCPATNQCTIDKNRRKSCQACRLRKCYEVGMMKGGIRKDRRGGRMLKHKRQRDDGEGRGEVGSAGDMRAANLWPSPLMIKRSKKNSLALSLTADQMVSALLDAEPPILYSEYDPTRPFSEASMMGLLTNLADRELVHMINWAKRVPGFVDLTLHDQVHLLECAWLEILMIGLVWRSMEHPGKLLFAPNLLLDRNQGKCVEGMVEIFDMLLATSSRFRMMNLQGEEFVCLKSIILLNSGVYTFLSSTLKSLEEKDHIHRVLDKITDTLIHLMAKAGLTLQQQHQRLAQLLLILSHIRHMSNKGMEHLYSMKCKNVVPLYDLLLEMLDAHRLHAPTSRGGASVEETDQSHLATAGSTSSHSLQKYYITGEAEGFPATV
Nature of the experiment: soluble estrogen receptor-alpha (ER-α) binding assay, [3H]-estradiol competition. To be noted: 2-3 nM [3H]-estradiol, 4 °C for 18 hours; Cheng-Prusoff. The text has this: For soluble estrogen receptor-alpha (ER-α) binding assays, [^3H]- Estradiol (120-140 Ci/mmol) was purchased from New England Nuclear (Boston, MA), 17-beta estradiol was purchased from Sigma Chemical Co. (St. Louis, MO), CHAPS and DTT were purchased from Boehringer Mannheim GmbH (W. Germany) and all other reagents were purchased from Sigma.
The human estrogen receptor-alpha cDNA was cloned into a yeast vector termed pYhERα and used to transform wild type yeast strain BJ2168 following the protocol outlined by Pham, T.A., Hwung Y.P., Santiso-Mere, D., McDonnell D.P., O'Malley, B.W., Ligand-Dependent and Independent Function of the Transactivation Regions of the Human Estrogen Receptor in Yeast, Mol. Endocrinol. 1992, 6, 1043-1050, hereby incorporated by reference. The yeast was induced with copper for 16 hours after which the cells were harvested, washed and the receptor extract prepared in cold buffer via a Bead Beater (BioSpec Products , Bartlesville, OK). Aliquots of the receptor typically contained 5-10 mg/ml of total protein and were stored at -80 °C until used. Estradiol or other competing compounds were prepared as 5 mM stock solutions in either 100% ethanol or DMSO and serial dilutions were carried out in 1:1 DMSO-ethanol. The assay buffer consisted of the following: 300 mM potassium chloride, 10 mM Trizma Base, 2 mM DTT and 5 mM CHAPS , pH=7.5 at room temperature.
Receptor assays were performed in a 250 µL final volume containing from 5-10 µg of extract protein, plus 2-3 nM [^3H]-estradiol and varying concentrations of competing ligand (0 to 10,000 nM). Assays were set up using a 96-well minitube system and incubations were carried out at 4 °C for 18 hours. Equilibrium under these conditions of buffer and temperature was achieved by 6-8 hours. Nonspecific binding was defined as that binding remaining in the presence of 1000 nM unlabeled estradiol. At the end of the incubation period, 200 µL of 6.25% hydroxyapatite was added in wash buffer (binding buffer in the absence of DTT but containing 1 mM CHAPS). Specific ligand binding to receptor was determined by a hydroxyapatite-binding assay according to the protocol outlined by Wecksler, W.R., Norman, A.W, An Hydroxylapatite Batch Assay for the Quantitation of 1α, 25-Dihydroxyvitamin D3-Receptor Complexes. Anal. Biochem. 1979, 92, 314-323, hereby incorporated by reference. Hydroxyapatite absorbs the receptor-ligand complex, allowing for the separation of bound from free radiolabeled ligand. The mixture was vortexed, incubated for 10 minutes at 4 °C, centrifuged, and the supernatant was removed. The hydroxyapatite pellet was washed twice more with the wash buffer. The amount of receptor-ligand complex was determined by liquid scintillation counting of the hydroxyapatite pellet after the addition of […] EcoScint A scintillation cocktail from National Diagnostics (Atlanta, GA.).
After correcting for nonspecific binding, IC50 values were determined. […] The IC50 values were determined graphically from a log-logit plot of the data. […] Standards are included in each assay and resulting Ki values are determined by use of a modified Cheng-Prusoff equation and used to calculate Ki values for "unknown analogs", DeBlasi, A., O'Reilly, K., Motulsky, H.J., Calculating Receptor Number from Binding Experiments Using Same Compound As Radioligand and Competitor, TIPS 1989, 10, 227-229, hereby incorporated by reference.
Compound `CNc1ccc(C(c2ccc(N(C)C)cc2)c2cc([N+](=O)[O-])ccc2Cl)cc1` (stereo not drawn) [Example 39, 4'-dimethylamino-4"-methylamino-2-chloro-5-nitrotriphenylmethane] showed a Ki greater than 10000 nM.
Under `O=[N+]([O-])c1ccc(Cl)c(C(c2ccc(NCc3ccccc3)cc2)c2ccc(NCc3ccccc3)cc2)c1` [Example 36, 4',4" bis(N-benzylamino)-2-chloro-5-nitrotriphenylmethane] stands greater than 10000 nM; under `CN(C)c1ccc(C(Oc2ccccc2)c2cc([N+](=O)[O-])ccc2Cl)cc1` (stereo not drawn) [Example 52, phenyl-[(4'-dimethylaminophenyl)-(2-chloro-5-nitrophenyl)methyl] ether], greater than 10000 nM.
`CNc1ccc(C(c2ccc(NC)cc2)c2cc([N+](=O)[O-])ccc2Cl)cc1` [Example 23, 4',4" bis(methylamino)-2-chloro-5-nitrotriphenylmethane] returned a Ki greater than 10000 nM.
As for `CN(C)c1ccc(C(c2ccc(N(C)CCO)cc2)c2cc([N+](=O)[O-])ccc2Cl)cc1` (stereo not drawn) [Example 42, 4'-dimethylamino-4"-(N-methyl-N-(2-hydroxyethyl)amino)-2-chloro-5-nitrotriphenylmethane], the figure is greater than 10000 nM.
As for `CC(=O)OCCN(C)c1ccc(C(c2ccc(N(C)C)cc2)c2cc([N+](=O)[O-])ccc2Cl)cc1` (stereo not drawn) [Example 51, 4'-dimethylamino-4"-(N-methyl-N-(2-acetoxyethyl)amino)-2-chloro-5-nitrotriphenylmethane], the figure is greater than 10000 nM; as for `CNc1ccc(C(c2ccc(N(C)CCOC(C)=O)cc2)c2cc([N+](=O)[O-])ccc2Cl)cc1` (stereo not drawn) [Example 49, 4'-methylamino-4"-(N-(2-acetoxyethyl)-N-methylamino)-2-chloro-5-nitrotriphenylmethane], greater than 10000 nM; as for `CN(C)c1ccc(C(Sc2ccccc2)c2cc([N+](=O)[O-])ccc2Cl)cc1` (stereo not drawn) [Example 54, phenyl-[(4'-dimethylaminophenyl)-(2-chloro-5-nitrophenyl)methyl]thioether], greater than 10000 nM.
As for `CNc1ccc(C(c2ccc(NC)cc2)c2cc(Cl)ccc2Cl)cc1` [Example 27, 4',4" bis(methylamino)-2,5-dichlorotriphenylmethane], the figure is greater than 10000 nM.

The Ki is the equilibrium dissociation constant of an inhibitor or competing ligand from its target. High values mean weaker binding, low ones tighter binding.

Values taken from patent EP1100483B1, “GLUCOCORTICOID-SELECTIVE ANTI-INFLAMMATORY AGENTS” (Abbott Laboratories, priority 1998, dated 2000).
